Data published in patent US11485726B2, “Compound for inhibiting and degrading tyrosine protein kinase ALK” (SHANGHAI MEIZER PHARMACEUTICALS CO., LTD., priority 2017, dated 2022).

Assays:
ALK kinase [1] = target: T1, ALK kinase (Homo sapiens, UniProt Q9UM73); experiment: ALK protein degradation activity by Western blot in H2228 cells; type: cell-based; parameters: H2228 cell lines (human non-small cell line lung cancer cells, available from ATCC); host or cells: H2228 (human non-small cell lung cancer cells); the other entry of the earlier key: EML4 (Q9HC35, Echinoderm microtubule-associated protein-like 4); conditions: NCI-H2228, compound 1 μM, treatment for 24 hours, degradation rate by Western blot
Target sequence in this assay (Q9UM73 with tags, fused parts or gaps): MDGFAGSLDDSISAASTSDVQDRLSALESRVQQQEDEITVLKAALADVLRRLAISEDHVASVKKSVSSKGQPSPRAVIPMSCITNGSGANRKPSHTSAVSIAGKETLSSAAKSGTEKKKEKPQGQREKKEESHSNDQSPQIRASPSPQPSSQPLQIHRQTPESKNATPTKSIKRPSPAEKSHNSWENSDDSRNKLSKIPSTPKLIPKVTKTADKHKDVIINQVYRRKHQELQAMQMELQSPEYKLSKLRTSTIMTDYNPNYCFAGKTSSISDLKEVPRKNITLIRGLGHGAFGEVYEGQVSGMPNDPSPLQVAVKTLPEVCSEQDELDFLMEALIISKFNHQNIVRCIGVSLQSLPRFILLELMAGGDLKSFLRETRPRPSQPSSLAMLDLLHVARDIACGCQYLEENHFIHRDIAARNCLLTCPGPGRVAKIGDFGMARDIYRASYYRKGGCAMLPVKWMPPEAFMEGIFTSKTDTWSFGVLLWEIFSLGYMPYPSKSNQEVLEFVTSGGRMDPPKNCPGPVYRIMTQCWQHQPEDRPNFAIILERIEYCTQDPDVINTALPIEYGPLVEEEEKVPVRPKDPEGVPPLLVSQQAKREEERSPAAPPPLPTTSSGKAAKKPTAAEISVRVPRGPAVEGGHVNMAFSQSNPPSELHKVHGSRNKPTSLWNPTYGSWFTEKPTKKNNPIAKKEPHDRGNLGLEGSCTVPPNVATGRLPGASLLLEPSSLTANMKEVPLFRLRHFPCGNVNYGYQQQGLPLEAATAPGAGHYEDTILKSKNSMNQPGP

SU-DHL-1 cells = experiment: Inhibition of proliferation of SU-DHL-1 cells by CTG assay; type: cell-based; conditions: Homo sapiens, compound 100 μM, 72 hours
Procedure: Example 7 Testing the Inhibitory Effect of Formula Compound on the Proliferation of SU-DHL-1 Cells by CTG Assay
The inhibitory effect of the compound on the proliferation of SU-DHL-1 cells ([…]) was determined by the […] method in vitro. The Cells were cultured and the compound was prepared referring to the method of […], and the culture time after administration was 72 hours. Subsequently, an appropriate amount of CTG reagent was added, the luminescence value was measured, and the inhibition rate was calculated.

ALK kinase [2] = target: T1, ALK kinase; experiment: ALK inhibition activity by Caliper assay; type: biochemical; conditions: compound 100 nM
Procedure: Example 5 Testing the ALK Inhibition Activity of Compound by Caliper Assay
The experimental steps were as follows:
Preparation of 1×kinase reaction buffer (50 mM HEPES, PH 7.5; 0.0015% Brij-35) and kinase reaction termination solution (100 mM HEPES, PH 7.5; 0.0015% Brij-35; 0.2% Coating Reagent; 50 mM EDTA);
Preparation of experimental samples: 100 μl of 5 μM sample solution (dissolved in 100% DMSO) was added to a 96-well plate to obtain a 50×sample solution. As controls, two wells containing only 100 μL of 100% DMSO were set on the same plate. One was served as a control without samples and the other was served as a control without enzymes. 10 μL of sample and 90 μL, of 1×kinase reaction buffer were added to a 96-well plate as a transfer plate. The transfer plate was shaken for 10 minutes.
Preparation of the test plate: taking 5 μL of each of the prepared samples from the 96-well transfer plate into a 384-well plate.
Kinase reaction: to 5 μL of 5×compound solution (dissolved in DMSO, diluted 10 times with water) was added 10 μL of 2.5×ALK kinase solution (kinase was diluted with 1×kinase reaction buffer), which was incubated at room temperature for 10 min, and then 10 μL of 2.5×substrate peptide solution (FAM-labeled peptide and ATP were diluted with 1×kinase reaction buffer) was added.
Termination of the kinase reaction: 25 μL of kinase reaction termination solution was added after being reacted at 28° C. for a period of time.
The fluorescence (F) was tested on a Caliper and data was collected.
The inhibition rate of kinase activity was calculated: the percent inhibition rate of kinase activity=(FDMSO control−Fsample)/(FDMSO control−Fnegative control)×100, with DMSO as the solution control, and no kinase as the negative control.
Target sequence in this assay (Q9UM73 19-1620): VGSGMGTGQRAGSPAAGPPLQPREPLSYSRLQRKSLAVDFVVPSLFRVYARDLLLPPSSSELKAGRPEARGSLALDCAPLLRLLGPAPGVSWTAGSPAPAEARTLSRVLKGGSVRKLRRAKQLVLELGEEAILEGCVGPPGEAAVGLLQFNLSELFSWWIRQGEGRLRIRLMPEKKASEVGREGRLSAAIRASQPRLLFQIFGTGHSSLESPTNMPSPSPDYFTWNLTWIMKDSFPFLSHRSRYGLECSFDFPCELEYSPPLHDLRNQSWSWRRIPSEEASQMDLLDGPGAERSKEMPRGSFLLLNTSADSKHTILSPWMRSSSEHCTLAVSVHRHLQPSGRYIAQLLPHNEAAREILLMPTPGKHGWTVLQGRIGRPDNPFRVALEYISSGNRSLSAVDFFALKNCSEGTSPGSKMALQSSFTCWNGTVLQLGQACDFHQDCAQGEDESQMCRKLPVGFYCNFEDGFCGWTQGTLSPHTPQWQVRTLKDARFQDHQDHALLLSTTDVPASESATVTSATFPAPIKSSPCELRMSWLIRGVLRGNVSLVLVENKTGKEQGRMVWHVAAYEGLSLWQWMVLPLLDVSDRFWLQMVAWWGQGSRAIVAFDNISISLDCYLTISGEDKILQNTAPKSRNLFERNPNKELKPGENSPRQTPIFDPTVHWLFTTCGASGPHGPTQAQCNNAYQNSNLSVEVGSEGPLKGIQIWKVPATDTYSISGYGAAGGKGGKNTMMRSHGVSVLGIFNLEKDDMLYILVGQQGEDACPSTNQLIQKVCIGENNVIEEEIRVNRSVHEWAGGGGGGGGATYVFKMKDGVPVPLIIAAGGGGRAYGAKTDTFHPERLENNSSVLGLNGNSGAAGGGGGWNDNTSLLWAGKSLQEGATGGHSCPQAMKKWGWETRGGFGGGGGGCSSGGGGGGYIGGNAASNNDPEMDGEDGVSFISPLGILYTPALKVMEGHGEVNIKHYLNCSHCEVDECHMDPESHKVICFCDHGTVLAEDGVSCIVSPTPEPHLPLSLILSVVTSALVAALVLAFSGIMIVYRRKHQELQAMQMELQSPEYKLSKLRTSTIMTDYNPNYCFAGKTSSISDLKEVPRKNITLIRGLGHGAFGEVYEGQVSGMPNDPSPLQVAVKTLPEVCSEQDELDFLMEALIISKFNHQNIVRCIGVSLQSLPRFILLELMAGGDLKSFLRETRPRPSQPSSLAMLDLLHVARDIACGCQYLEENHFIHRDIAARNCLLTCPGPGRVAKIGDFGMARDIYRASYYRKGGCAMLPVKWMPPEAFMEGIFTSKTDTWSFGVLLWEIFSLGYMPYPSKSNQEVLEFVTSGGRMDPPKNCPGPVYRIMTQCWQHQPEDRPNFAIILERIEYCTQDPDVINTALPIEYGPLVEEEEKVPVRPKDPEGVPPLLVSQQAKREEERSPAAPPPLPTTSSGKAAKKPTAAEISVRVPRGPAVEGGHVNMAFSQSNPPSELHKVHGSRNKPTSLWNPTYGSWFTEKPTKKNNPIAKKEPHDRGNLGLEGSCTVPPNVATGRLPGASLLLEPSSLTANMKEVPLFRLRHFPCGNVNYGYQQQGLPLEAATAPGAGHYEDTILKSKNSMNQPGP

Row | SMILES | inhibition at 1 µM (ALK kinase [1]) [%] | inhibition at 100 µM (SU-DHL-1 cells) [%] | inhibition at 0.1 µM (ALK kinase [2]) [%]
1 | Cc1cc(Nc2ncc(Cl)c(Nc3ccccc3S(=O)(=O)C(C)C)n2)c(OC(C)C)cc1C1CCN(CCCCCC(=O)Nc2cccc3c2C(=O)N(C2CCC(=O)NC2=O)C3=O)CC1 (centres unmarked) [Compound 3] | > 90 | 72 | 98
2 | Cc1cc(Nc2ncc(Cl)c(Nc3ccccc3S(=O)(=O)C(C)C)n2)c(OC(C)C)cc1C1CCN(CCOCCOCCOc2cccc3c2C(=O)N(C2CCC(=O)NC2=O)C3=O)CC1 (centres unmarked) [Compound 7] | > 90 | 98 | 97
3 | Cc1cc(Nc2ncc(Cl)c(Nc3ccccc3S(=O)(=O)C(C)C)n2)c(OC(C)C)cc1C1CCN(C(=O)COCCOCCNc2cccc3c2C(=O)N(C2CCC(=O)NC2=O)C3=O)CC1 (centres unmarked) [Compound 10] | > 90 |  | 99
4 | Cc1cc(Nc2ncc(Cl)c(Nc3ccccc3S(=O)(=O)C(C)C)n2)c(OC(C)C)cc1C1CCN(S(=O)(=O)CCCCCOc2cccc3c2C(=O)N(C2CCC(=O)NC2=O)C3=O)CC1 (centres unmarked) [Compound 13] | > 90 |  | 69
5 | Cc1cc(Nc2ncc(Cl)c(Nc3ccccc3S(=O)(=O)C(C)C)n2)c(OC(C)C)cc1C1CCN(CCOCCOCCOCCNc2cccc3c2C(=O)N(C2CCC(=O)NC2=O)C3=O)CC1 (centres unmarked) [Compound 14] | > 90 | 99 | 89
6 | Cc1cc(Nc2ncc(Cl)c(Nc3ccccc3S(=O)(=O)C(C)C)n2)c(OC(C)C)cc1C1CCN(CCCCC(=O)Nc2cccc3c2C(=O)N(C2CCC(=O)NC2=O)C3=O)CC1 (centres unmarked) [Compound 16] | > 90 |  | 
7 | Cc1cc(Nc2ncc(Cl)c(Nc3ccccc3S(=O)(=O)C(C)C)n2)c(OC(C)C)cc1C1CCN(CCCC(=O)Nc2cccc3c2C(=O)N(C2CCC(=O)NC2=O)C3=O)CC1 (centres unmarked) [Compound 17] | > 90 |  | 
8 | Cc1cc(Nc2ncc(Cl)c(Nc3ccccc3S(=O)(=O)C(C)C)n2)c(OC(C)C)cc1C1CCN(CCC(=O)Nc2cccc3c2C(=O)N(C2CCC(=O)NC2=O)C3=O)CC1 (centres unmarked) [Compound 18] | > 90 |  | 
9 | Cc1cc(Nc2ncc(Cl)c(Nc3ccccc3S(=O)(=O)C(C)C)n2)c(OC(C)C)cc1C1CCN(CCOCCOCCC(=O)Nc2cccc3c2C(=O)N(C2CCC(=O)NC2=O)C3=O)CC1 (centres unmarked) [Compound 19] | > 90 |  | 
10 | Cc1cc(Nc2ncc(Cl)c(Nc3ccccc3S(=O)(=O)C(C)C)n2)c(OC(C)C)cc1C1CCN(CCOCCOCCOCCC(=O)Nc2cccc3c2C(=O)N(C2CCC(=O)NC2=O)C3=O)CC1 (centres unmarked) [Compound 20] | > 90 |  | 
11 | Cc1cc(Nc2ncc(Cl)c(Nc3ccccc3S(=O)(=O)C(C)C)n2)c(OC(C)C)cc1C1CCN(CCOCCOc2cccc3c2C(=O)N(C2CCC(=O)NC2=O)C3=O)CC1 (centres unmarked) [Compound 21] | 50 to 90 |  | 
12 | Cc1cc(Nc2ncc(Cl)c(Nc3ccccc3S(=O)(=O)C(C)C)n2)c(OC(C)C)cc1C1CCN(CCCCCOc2cccc3c2C(=O)N(C2CCC(=O)NC2=O)C3=O)CC1 (centres unmarked) [Compound 22] | 50 to 90 |  | 
13 | Cc1cc(Nc2ncc(Cl)c(Nc3ccccc3S(=O)(=O)C(C)C)n2)c(OC(C)C)cc1C1CCN(CCCCOc2cccc3c2C(=O)N(C2CCC(=O)NC2=O)C3=O)CC1 (centres unmarked) [Compound 23] | 50 to 90 |  | 
14 | Cc1cc(Nc2ncc(Cl)c(Nc3ccccc3S(=O)(=O)C(C)C)n2)c(OC(C)C)cc1C1CCN(CCCOc2cccc3c2C(=O)N(C2CCC(=O)NC2=O)C3=O)CC1 (centres unmarked) [Compound 24] | 50 to 90 |  | 
15 | Cc1cc(Nc2ncc(Cl)c(Nc3ccccc3S(=O)(=O)C(C)C)n2)c(OC(C)C)cc1C1CCN(CCOCCOCCOCCOCCOc2cccc3c2C(=O)N(C2CCC(=O)NC2=O)C3=O)CC1 (centres unmarked) [Compound 25] | > 90 |  | 
16 | Cc1cc(Nc2ncc(Cl)c(Nc3ccccc3S(=O)(=O)C(C)C)n2)c(OC(C)C)cc1C1CCN(CCOCCOCCOCCOCCOCCOc2cccc3c2C(=O)N(C2CCC(=O)NC2=O)C3=O)CC1 (centres unmarked) [Compound 26] | 50 to 90 |  | 
17 | Cc1cc(Nc2ncc(Cl)c(Nc3ccccc3S(=O)(=O)C(C)C)n2)c(OC(C)C)cc1C1CCN(CCOCCNc2cccc3c2C(=O)N(C2CCC(=O)NC2=O)C3=O)CC1 (centres unmarked) [Compound 27] | > 90 |  | 

Row | SMILES | inhibition at 1 µM (ALK kinase [1]) [%] | inhibition at 100 µM (SU-DHL-1 cells) [%] | inhibition at 0.1 µM (ALK kinase [2]) [%]
18 | Cc1cc(Nc2ncc(Cl)c(Nc3ccccc3S(=O)(=O)C(C)C)n2)c(OC(C)C)cc1C1CCN(CCCCCNc2cccc3c2C(=O)N(C2CCC(=O)NC2=O)C3=O)CC1 (centres unmarked) [Compound 28] | > 90 |  | 
19 | Cc1cc(Nc2ncc(Cl)c(Nc3ccccc3S(=O)(=O)C(C)C)n2)c(OC(C)C)cc1C1CCN(CCCCNc2cccc3c2C(=O)N(C2CCC(=O)NC2=O)C3=O)CC1 (centres unmarked) [Compound 29] | 50 to 90 |  | 
20 | Cc1cc(Nc2ncc(Cl)c(Nc3ccccc3S(=O)(=O)C(C)C)n2)c(OC(C)C)cc1C1CCN(CCCNc2cccc3c2C(=O)N(C2CCC(=O)NC2=O)C3=O)CC1 (centres unmarked) [Compound 30] | 50 to 90 |  | 
21 | Cc1cc(Nc2ncc(Cl)c(Nc3ccccc3S(=O)(=O)C(C)C)n2)c(OC(C)C)cc1C1CCN(CCOCCOCCOCCOCCNc2cccc3c2C(=O)N(C2CCC(=O)NC2=O)C3=O)CC1 (centres unmarked) [Compound 31] | > 90 |  | 
22 | Cc1cc(Nc2ncc(Cl)c(Nc3ccccc3S(=O)(=O)C(C)C)n2)c(OC(C)C)cc1C1CCN(CCOCCOCCOCCOCCOCCNc2cccc3c2C(=O)N(C2CCC(=O)NC2=O)C3=O)CC1 (centres unmarked) [Compound 32] | 50 to 90 |  | 
23 | Cc1cc(Nc2ncc(Cl)c(Nc3ccccc3S(=O)(=O)C(C)C)n2)c(OC(C)C)cc1C1CCN(CC(=O)NCCNc2cccc3c2C(=O)N(C2CCC(=O)NC2=O)C3=O)CC1 (centres unmarked) [Compound 33] | > 90 |  | 
24 | Cc1cc(Nc2ncc(Cl)c(Nc3ccccc3S(=O)(=O)C(C)C)n2)c(OC(C)C)cc1C1CCN(CC(=O)NCCOCCOCCNc2cccc3c2C(=O)N(C2CCC(=O)NC2=O)C3=O)CC1 (centres unmarked) [Compound 35] | > 90 |  | 
25 | Cc1cc(Nc2ncc(Cl)c(Nc3ccccc3S(=O)(=O)C(C)C)n2)c(OC(C)C)cc1C1CCN(CC(=O)NCCOCCOCCOCCNc2cccc3c2C(=O)N(C2CCC(=O)NC2=O)C3=O)CC1 (centres unmarked) [Compound 36] | > 90 |  | 
26 | Cc1cc(Nc2ncc(Cl)c(Nc3ccccc3S(=O)(=O)C(C)C)n2)c(OC(C)C)cc1C1CCN(CC(=O)NCCOCCOCCOCCOCCNc2cccc3c2C(=O)N(C2CCC(=O)NC2=O)C3=O)CC1 (centres unmarked) [Compound 37] | 50 to 90 |  | 
27 | Cc1cc(Nc2ncc(Cl)c(Nc3ccccc3S(=O)(=O)C(C)C)n2)c(OC(C)C)cc1C1CCN(CC(=O)NCCOCCOCCOCCOCCOCCNc2cccc3c2C(=O)N(C2CCC(=O)NC2=O)C3=O)CC1 (centres unmarked) [Compound 38] | 50 to 90 |  | 
28 | Cc1cc(Nc2ncc(Cl)c(Nc3ccccc3S(=O)(=O)C(C)C)n2)c(OC(C)C)cc1C1CCN(CC(=O)NCCOc2cccc3c2C(=O)N(C2CCC(=O)NC2=O)C3=O)CC1 (centres unmarked) [Compound 39] | > 90 |  | 
29 | Cc1cc(Nc2ncc(Cl)c(Nc3ccccc3S(=O)(=O)C(C)C)n2)c(OC(C)C)cc1C1CCN(CC(=O)NCCOCCOc2cccc3c2C(=O)N(C2CCC(=O)NC2=O)C3=O)CC1 (centres unmarked) [Compound 40] | > 90 |  | 
30 | Cc1cc(Nc2ncc(Cl)c(Nc3ccccc3S(=O)(=O)C(C)C)n2)c(OC(C)C)cc1C1CCN(CC(=O)NCCOCCOCCOc2cccc3c2C(=O)N(C2CCC(=O)NC2=O)C3=O)CC1 (centres unmarked) [Compound 41] | > 90 |  | 
31 | Cc1cc(Nc2ncc(Cl)c(Nc3ccccc3S(=O)(=O)C(C)C)n2)c(OC(C)C)cc1C1CCN(CC(=O)NCCOCCOCCOCCOc2cccc3c2C(=O)N(C2CCC(=O)NC2=O)C3=O)CC1 (centres unmarked) [Compound 42] | > 90 |  | 
32 | Cc1cc(Nc2ncc(Cl)c(Nc3ccccc3S(=O)(=O)C(C)C)n2)c(OC(C)C)cc1C1CCN(CC(=O)NCCOCCOCCOCCOCCOc2cccc3c2C(=O)N(C2CCC(=O)NC2=O)C3=O)CC1 (centres unmarked) [Compound 43] | 50 to 90 |  | 
33 | Cc1cc(Nc2ncc(Cl)c(Nc3ccccc3S(=O)(=O)C(C)C)n2)c(OC(C)C)cc1C1CCN(CC(=O)NCCOCCOCCOCCOCCOCCOc2cccc3c2C(=O)N(C2CCC(=O)NC2=O)C3=O)CC1 (centres unmarked) [Compound 44] | 50 to 90 |  | 
